# Source: patent US20060264460A1 (Wyeth, priority 2005, published 2006)
# pIC50: −log10 of the molar value.
# Target: T1, human Cot/Tpl2 kinase (Homo sapiens, UniProt P41279)
# T1 construct: human Cot/Tpl2 kinase construct encoding residues 30-398; 6His (N); made in house; host or cells: Sf9 insect cells, baculovirus system (BD Biosciences)
# Experiment: Tpl2/Cot kinase assay: GST-MEK1 phosphorylation detected by ELISA (DELFIA Eu)
# Format: biochemical
# Conditions: Table 2; Tpl2/Cot kinase, GST-MEK1 substrate, 50 uM ATP
# How it was run: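 Substrate phosphorylation (GST-MEK1 Ser217/221) quantified by DELFIA europium ELISA, yielding IC50 values. Reaction: 1 h at 30° C, pH 7.2 MOPS buffer, 50 uM ATP, 35 nM GST-MEK1, 0.4 nM monomeric His-Tpl2 purified from Sf9 cells, compounds at 1% final DMSO; stopped with EDTA.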
# T1 sequence (P41279 30-398): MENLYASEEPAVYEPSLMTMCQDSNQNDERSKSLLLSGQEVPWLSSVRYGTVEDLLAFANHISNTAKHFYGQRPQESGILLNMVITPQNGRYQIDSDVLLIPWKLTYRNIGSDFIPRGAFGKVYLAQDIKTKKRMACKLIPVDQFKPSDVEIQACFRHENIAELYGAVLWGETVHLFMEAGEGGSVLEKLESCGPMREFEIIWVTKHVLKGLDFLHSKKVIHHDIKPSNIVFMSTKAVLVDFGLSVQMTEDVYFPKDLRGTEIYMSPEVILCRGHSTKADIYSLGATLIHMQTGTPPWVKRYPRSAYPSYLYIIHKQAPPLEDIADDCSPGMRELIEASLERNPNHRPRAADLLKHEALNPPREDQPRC
row,pIC50,Structure (SMILES)
1,7.68,COCCOCCn1cc(CNc2cc(Cl)c3ncc(C#N)c(Nc4ccc(F)c(Cl)c4)c3c2)nn1 [Example 564]
2,7.00,COCCOCCn1cc(CNc2cc(Br)c3ncc(C#N)c(Nc4ccc(F)c(Cl)c4)c3c2)nn1 [Example 565]
3,7.40,CCN1CCC(Cn2cc(CNc3cc(Br)c4ncc(C#N)c(Nc5ccc(F)c(Cl)c5)c4c3)nn2)CC1 [Example 566]
4,7.54,CC(C)N1CCC(Cn2cc(CNc3cc(Br)c4ncc(C#N)c(Nc5ccc(F)c(Cl)c5)c4c3)nn2)CC1 [Example 567]
5,7.19,CCN1CCC(CCn2cc(CNc3cc(Br)c4ncc(C#N)c(Nc5ccc(F)c(Cl)c5)c4c3)nn2)CC1 [Example 568]
6,7.24,CC(C)N1CCC(CCn2cc(CNc3cc(Br)c4ncc(C#N)c(Nc5ccc(F)c(Cl)c5)c4c3)nn2)CC1 [Example 569]
7,7.85,N#Cc1cnc2c(Cl)cc(NCc3cn(C4CCOCC4)nn3)cc2c1Nc1ccc(F)c(Cl)c1 [Example 570]
8,6.62,CN(C)CCc1nc[nH]c1CNc1cc(Br)c2ncc(C#N)c(Nc3ccc(F)c(Cl)c3)c2c1 [Example 571]
9,7.04,N#Cc1cnc2c(Cl)cc(NCc3cn(CCOCCOCCO)nn3)cc2c1Nc1ccc(F)c(Cl)c1 [Example 572]
10,6.85,N#Cc1cnc2c(Br)cc(NCc3cn(CCOCCOCCO)nn3)cc2c1Nc1ccc(F)c(Cl)c1 [Example 573]
11,7.03,CN(C)CC(c1ccccc1)n1cc(CNc2cc(Br)c3ncc(C#N)c(Nc4ccc(F)c(Cl)c4)c3c2)nn1 (stereo not shown) [Example 575]
12,7.82,N#Cc1cnc2c(Br)cc(NCc3cn(-c4cc[n+]([O-])cc4)nn3)cc2c1Nc1ccc(F)c(Cl)c1 [Example 577]
13,7.48,N#Cc1cnc2c(Br)cc(NCc3cn(Cc4ccccn4)nn3)cc2c1Nc1ccc(F)c(Cl)c1 [Example 579]
14,8.44,N#Cc1cnc2c(Cl)cc(NCc3cn(CCCO)nn3)cc2c1Nc1ccc(F)c(Cl)c1 [Example 581]
15,7.80,CN(C)C(=O)OCCCn1cc(CNc2cc(Cl)c3ncc(C#N)c(Nc4ccc(F)c(Cl)c4)c3c2)nn1 [Example 582]
16,8.46,CN(C)C(=O)OCCCn1cc(CNc2cc(Br)c3ncc(C#N)c(Nc4ccc(F)c(Cl)c4)c3c2)nn1 [Example 584]
17,6.10,N#Cc1cnc2c(Cl)cc(NCc3cn(CC4CCCCC4)nn3)cc2c1Nc1ccc(F)c(Cl)c1 [Example 585]
18,8.17,CN(C)CCC(c1cccnc1)n1cc(CNc2cc(Br)c3ncc(C#N)c(Nc4ccc(F)c(Cl)c4)c3c2)nn1 (stereo not shown) [Example 587]
19,6.28,CC(C)(C)OC(=O)N1CCCN(CCCn2cc(CNc3cc(Br)c4ncc(C#N)c(Nc5ccc(F)c(Cl)c5)c4c3)nn2)CC1 [Example 589]
20,6.92,CC(C)(C)OC(=O)N1CCCN(CCCn2cc(CNc3cc(Cl)c4ncc(C#N)c(Nc5ccc(F)c(Cl)c5)c4c3)nn2)CC1 [Example 590]

row,pIC50,Structure (SMILES)
1,5.89,CC(C)(C)OC(=O)N1CCN(CCCn2cc(CNc3cc(Br)c4ncc(C#N)c(Nc5ccc(F)c(Cl)c5)c4c3)nn2)CC1 [Example 591]
2,6.64,CC(C)(C)OC(=O)N1CCN(CCCn2cc(CNc3cc(Cl)c4ncc(C#N)c(Nc5ccc(F)c(Cl)c5)c4c3)nn2)CC1 [Example 592]
3,7.37,N#Cc1cnc2c(Br)cc(NCc3cn(CCCN4CCCNCC4)nn3)cc2c1Nc1ccc(F)c(Cl)c1 [Example 594]
4,7.13,N#Cc1cnc2c(Cl)cc(NCc3cn(CCCN4CCCNCC4)nn3)cc2c1Nc1ccc(F)c(Cl)c1 [Example 595]
5,6.96,N#Cc1cnc2c(Br)cc(NCc3cn(CCCN4CCNCC4)nn3)cc2c1Nc1ccc(F)c(Cl)c1 [Example 596]
6,6.80,N#Cc1cnc2c(Cl)cc(NCc3cn(CCCN4CCNCC4)nn3)cc2c1Nc1ccc(F)c(Cl)c1 [Example 597]
7,8.23,N#Cc1cnc2c(Cl)cc(NCc3cn(CCOC(N)=O)nn3)cc2c1Nc1ccc(F)c(Cl)c1 [Example 599]
8,8.74,CN(CCCn1cc(CNc2cc(Cl)c3ncc(C#N)c(Nc4ccc(F)c(Cl)c4)c3c2)nn1)C1CCCCC1 [Example 609]
9,6.82,CC1CC(C)CN(CCCn2cc(CNc3cc(Cl)c4ncc(C#N)c(Nc5ccc(F)c(Cl)c5)c4c3)nn2)C1 (stereo not shown) [Example 610]
10,9.27,CN(C)C(=O)Cn1cc(CNc2cc(Cl)c3ncc(C#N)c(Nc4ccc(F)c(Cl)c4)c3c2)nn1 [Example 613]
11,8.00,CN(C)C(=O)CCn1cc(CNc2cc(Cl)c3ncc(C#N)c(Nc4ccc(F)c(Cl)c4)c3c2)nn1 [Example 614]
12,8.21,CN1CC(CCn2cc(CNc3cc(Cl)c4ncc(C#N)c(Nc5ccc(F)c(Cl)c5)c4c3)nn2)N(C)C1=O (stereo not shown) [Example 615]
13,7.47,N#Cc1cnc2c(Br)cc(NCc3cn(Cc4ccccn4)cn3)cc2c1Nc1ccc(F)c(Cl)c1 [Example 620]
14,7.15,CN1CCCN(CCCn2cc(CNc3cc(Br)c4ncc(C#N)c(Nc5ccc(F)c(Cl)c5)c4c3)nn2)CC1 [Example 624]
15,7.32,CN1CCCN(CCCn2cc(CNc3cc(Cl)c4ncc(C#N)c(Nc5ccc(F)c(Cl)c5)c4c3)nn2)CC1 [Example 625]
16,7.54,CN1CCN(CCCn2cc(CNc3cc(Br)c4ncc(C#N)c(Nc5ccc(F)c(Cl)c5)c4c3)nn2)CC1 [Example 626]
17,7.41,CN1CCN(CCCn2cc(CNc3cc(Cl)c4ncc(C#N)c(Nc5ccc(F)c(Cl)c5)c4c3)nn2)CC1 [Example 627]
18,6.85,N#Cc1cnc2c(Br)cc(NCC(=O)O)cc2c1Nc1ccc(F)c(Cl)c1 [Example 630]
19,6.64,N#Cc1cnc2c(Br)cc(NCc3cn(C4CCCC4)cn3)cc2c1Nc1ccc(F)c(Cl)c1 [Example 632]
20,< 5.52,CC(C)n1cnc(CNc2cc(Br)c3ncc(C#N)c(Nc4ccc(F)c(Cl)c4)c3c2)c1 [Example 633]

# The next lines start with the compound.
row,Structure (SMILES),pIC50
1,CN(C)CC(c1ccccc1)n1cc(CNc2cc(Cl)c3ncc(C#N)c(Nc4ccc(F)c(Cl)c4)c3c2)nn1 (stereo not shown) [Example 574],7.15
2,N#Cc1cnc2c(Cl)cc(NCc3cn(-c4cc[n+]([O-])cc4)nn3)cc2c1Nc1ccc(F)c(Cl)c1 [Example 576],7.80
3,N#Cc1cnc2c(Cl)cc(NCc3cn(-c4ccnc(N5CCCCC5)n4)nn3)cc2c1Nc1ccc(F)c(Cl)c1 [Example 578],6.49
4,N#Cc1cnc2c(Cl)cc(NCc3cn(Cc4ccc(C(F)(F)F)cc4)nn3)cc2c1Nc1ccc(F)c(Cl)c1 [Example 583],< 5.52
5,CC(c1ccccc1)n1cc(CNc2cc(Cl)c3ncc(C#N)c(Nc4ccc(F)c(Cl)c4)c3c2)nn1 (stereo not shown) [Example 586],7.02
6,CN(C)CCC(c1cccnc1)n1cc(CNc2cc(Cl)c3ncc(C#N)c(Nc4ccc(F)c(Cl)c4)c3c2)nn1 (stereo not shown) [Example 588],7.44
7,N#Cc1cnc2c(Cl)cc(NCC(=O)NCc3cccnc3)cc2c1Nc1ccc(F)c(Cl)c1 [Example 598],6.70
8,N#Cc1cnc2c(Cl)cc(NCC(=O)NCc3ccncc3)cc2c1Nc1ccc(F)c(Cl)c1 [Example 600],7.32
9,N#Cc1cnc2c(Cl)cc(NCC(=O)Nc3cccnc3)cc2c1Nc1ccc(F)c(Cl)c1 [Example 601],6.96
10,N#Cc1cnc2c(Cl)cc(NCC(=O)Nc3ccncc3)cc2c1Nc1ccc(F)c(Cl)c1 [Example 602],5.62
11,CN(C)CCCNC(=O)CNc1cc(Cl)c2ncc(C#N)c(Nc3ccc(F)c(Cl)c3)c2c1 [Example 603],< 5.52
12,N#Cc1cnc2c(Cl)cc(NCC(=O)NCCCN3CCOCC3)cc2c1Nc1ccc(F)c(Cl)c1 [Example 604],< 5.52
13,CN(C)CCNC(=O)CNc1cc(Cl)c2ncc(C#N)c(Nc3ccc(F)c(Cl)c3)c2c1 [Example 605],5.80
14,COCCCNC(=O)CNc1cc(Cl)c2ncc(C#N)c(Nc3ccc(F)c(Cl)c3)c2c1 [Example 606],6.64
15,N#Cc1cnc2c(Cl)cc(NCC(=O)NCc3ccccn3)cc2c1Nc1ccc(F)c(Cl)c1 [Example 607],6.48
16,N#Cc1cnc2c(Cl)cc(NCC(=O)NCCN3CCOCC3)cc2c1Nc1ccc(F)c(Cl)c1 [Example 608],6.28
17,CN(Cc1cn(C)cn1)c1cc(Br)c2ncc(C#N)c(Nc3ccc(F)c(Cl)c3)c2c1 [Example 611],< 5.52
18,CN1CCCC1CCNC(=O)CNc1cc(Cl)c2ncc(C#N)c(Nc3ccc(F)c(Cl)c3)c2c1 (stereo not shown) [Example 612],< 5.52
19,CCN1CC(CCn2cc(CNc3cc(Cl)c4ncc(C#N)c(Nc5ccc(F)c(Cl)c5)c4c3)nn2)N(c2ccccc2)C1=O (stereo not shown) [Example 616],7.60
20,CCN1CC(CCn2cc(CNc3cc(Cl)c4ncc(C#N)c(Nc5ccc(F)c(Cl)c5)c4c3)nn2)N(c2ccccc2)C1=S (stereo not shown) [Example 617],6.89
21,CC(C)(C)OC(=O)N1CCC[C@H]1CNc1cc(Cl)c2ncc(C#N)c(Nc3ccc(F)c(Cl)c3)c2c1 [Example 618],< 5.52
22,N#Cc1cnc2c(Cl)cc(NC[C@@H]3CCCN3)cc2c1Nc1ccc(F)c(Cl)c1 [Example 619],< 5.52
23,N#Cc1cnc2c(Cl)cc(NCc3cn(Cc4ccccn4)cn3)cc2c1Nc1ccc(F)c(Cl)c1 [Example 621],7.39
24,N#Cc1cnc2c(Cl)cc(NCc3cn(Cc4ccncc4)cn3)cc2c1Nc1ccc(F)c(Cl)c1 [Example 622],8.28
25,CCN(C[C@@H]1CCCN1C(=O)OC(C)(C)C)c1cc(Cl)c2ncc(C#N)c(Nc3ccc(F)c(Cl)c3)c2c1 [Example 623],< 5.52
26,N#Cc1cnc2c(Cl)cc(NC3CCCC3Cl)cc2c1Nc1ccc(F)c(Cl)c1 (stereo not shown) [Example 628],< 5.52
27,N#Cc1cnc2c(Cl)cc(NC3CCCC3N=[N+]=[N-])cc2c1Nc1ccc(F)c(Cl)c1 (stereo not shown) [Example 629],6.38
28,N#Cc1cnc2c(Cl)cc(NCC(O)CO)cc2c1Nc1ccc(F)c(Cl)c1 (stereo not shown) [Example 631],6.23
29,CC(=O)Nc1ccc(-n2cc(CNc3cc(Cl)c4ncc(C#N)c(Nc5ccc(F)c(Cl)c5)c4c3)nn2)cc1 [Example 634],7.46
30,N#Cc1cnc2c(Cl)cc(NC3CCCC3n3cc(CCO)nn3)cc2c1Nc1ccc(F)c(Cl)c1 (stereo not shown) [Example 635],7.17
